The record followed here is ChEMBL document CHEMBL4732113, “Exploiting the tolerant region I of the non-nucleoside reverse transcriptase inhibitor (NNRTI) binding pocket. Part 2: Discovery of diarylpyrimidine derivatives as potent HIV-1 NNRTIs with high Fsp values and favorable drug-like properties” (Eur J Med Chem, 2021).

Some results are limits rather than exact numbers.

Data set [1] relates to Human immunodeficiency virus 1. The data set is described as follows: Antiviral activity against HIV1 3B infected in human MT4 cells assessed as reduction in virus-induced cytopathic effect by MTT assay. The class given is functional, organism-based. To be noted: Human immunodeficiency virus 1, 3B. Background: Cytopathic effects are the visible damage that an infection or toxin causes in cultured cells.

For data set [2], the system named is Human immunodeficiency virus 1. The data set is described as follows: Antiviral activity against HIV1 harboring Y188L mutant infected in human MT4 cells assessed as reduction in virus-induced cytopathic effect by MTT assay. The data set is classed as functional, organism-based. To be noted: Human immunodeficiency virus 1, MT4.
For data set [3], the system named is Human immunodeficiency virus 1. The data set can be described thus: Antiviral activity against HIV1 harboring E138K mutant infected in human MT4 cells assessed as reduction in virus-induced cytopathic effect by MTT assay. The class given is functional, organism-based. To be noted: Human immunodeficiency virus 1, MT4.
Data set [4] concerns Human immunodeficiency virus 1. The data set can be described thus: Antiviral activity against HIV1 harboring K103N mutant infected in human MT4 cells assessed as reduction in virus-induced cytopathic effect by MTT assay. The class given is functional, organism-based. The settings on record: Human immunodeficiency virus 1, MT4.
In data set [5] the test system is Human immunodeficiency virus 1. The data set can be described thus: Antiviral activity against HIV1 RES056 harboring K103N/Y181C double mutant infected in human MT4 cells assessed as reduction in virus-induced cytopathic effect by MTT assay. The data set is classed as functional, organism-based.
For data set [6], the system named is Human immunodeficiency virus 1. The data set can be described thus: Potency index, ratio of etravirine EC50 to test compound EC50 for antiviral activity against HIV1 3B infected in human MT4 cells assessed as reduction in virus-induced cytopathic effect by MTT assay. The class given is functional.
The subject of data set [7] is Human immunodeficiency virus 1. The data set is described as follows: Antiviral activity against HIV1 harboring Y181C mutant infected in human MT4 cells assessed as reduction in virus-induced cytopathic effect by MTT assay. The class given is functional, organism-based. To be noted: Human immunodeficiency virus 1, MT4.
The test system of data set [8] is Human immunodeficiency virus 1. The data set can be described thus: Antiviral activity against HIV1 harboring L100I mutant infected in human MT4 cells assessed as reduction in virus-induced cytopathic effect by MTT assay. The class given is functional, organism-based. The settings on record: Human immunodeficiency virus 1, MT4.
Data set [9] can be described thus: Selectivity index, ratio of CC50 for human MT4 cells to EC50 for antiviral activity against HIV HIV1 RES056 harboring K103N/Y181C double mutant infected in human MT4 cells. The class given is toxicity, cell-based. The settings on record: read-out: Ratio CC50/EC50.
Data set [10] in a line: Selectivity index, ratio of CC50 for human MT4 cells to EC50 for antiviral activity against HIV 3B infected in human MT4 cells. The class given is toxicity, cell-based. To be noted: read-out: Ratio CC50/EC50.
In data set [11] the test system is Human immunodeficiency virus 1. The data set is described as follows: Potency index, ratio of etravirine EC50 to test compound EC50 for antiviral activity against HIV1 harboring K103N mutant infected in human MT4 cells assessed as reduction in virus-induced cytopathic effect by MTT assay. The class given is functional.
The nature of data set [12]: (§1) Cytotoxicity against human MT4 cells assessed as reduction in cell viability by MTT assay. The class given is cell-based. To be noted: MT4 cells.
In data set [13] the target is Human immunodeficiency virus type 1 reverse transcriptase (Human immunodeficiency virus 1, UniProt Q72547). The data set is described as follows: Inhibition of HIV1 reverse transcriptase assessed as reduction in biotin-dUTP incorporation into template incubated for 1 hr by ELISA. (In general: ELISA stands for enzyme-linked immunosorbent assay.)
Data set [14] relates to Human immunodeficiency virus 1. The data set is described as follows: Antiviral activity against HIV1 harboring F227L/V106A mutant infected in human MT4 cells assessed as reduction in virus-induced cytopathic effect by MTT assay. The class given is functional, organism-based. To be noted: Human immunodeficiency virus 1, MT4.
For a further data set, the system named is MT4. The data set is described as §1. The data set is classed as cell-based. To be noted: mt4.
The mark [15] stands for this setting: Human immunodeficiency virus 1, RES056, MT4, read-out: EC50.

For the compound `Cc1cc(/C=C/C#N)cc(C)c1Oc1ccnc(Nc2ccc(CN3CCS(=O)(=O)CC3)cc2)n1`, the EC50 was 2.1 nM in data set [1] (read-out: EC50); 2.09 nM in [1] (read-out: pEC50 (converted)); 3090 nM in data set [2]; 7.5 nM in [3]; 1.9 nM in [4]; 1080 nM in data set [5] (setting [15]). For the same compound, the EC50 was determined as 33 nM in data set [7], 11 nM in data set [8] and 91 nM in [14]. Besides, the “Ratio EC50” value stood at 2 in data set [6] and 1.7 in data set [11]. In addition, the figures for the selectivity ratio in [9] and in data set [10] were 17 and 8640, respectively. Also, the CC50 (usually the concentration giving 50% cytotoxicity) in data set [12] worked out at 18500 nM. Moreover, the IC50 (as a rule, the midpoint of a concentration-inhibition curve) in data set [13] is 34 nM.
On to `Cc1cc(C#N)cc(C)c1Oc1ccnc(Nc2ccc(CN3CCCN(S(=O)(=O)C4CC4)CC3)cc2)n1`, for which the EC50 in data set [1] (read-out: EC50) was 100 nM; in data set [1] (read-out: pEC50 (converted)), 100 nM; in data set [5] (mt4) it was “Not Active”. Further, in the data set on MT4, the CC50 entry is reported as “Not Active”. Further, the concentration for half-maximal inhibition (IC50) in data set [13] amounted to 200 nM.
Consider `Cc1cc(/C=C/C#N)cc(C)c1Oc1ccnc(Nc2ccc(CN3CC[S+]([O-])CC3)cc2)n1`, for which the EC50 in data set [1] (read-out: EC50) was 2.4 nM; in [1] (read-out: pEC50 (converted)), 2.4 nM; in data set [2], 5200 nM; in data set [3], 9.8 nM; in data set [4], 3.4 nM; in data set [5] (setting [15]), 2680 nM. The EC50 in [7] came out at 67 nM; in data set [8] it was 20 nM; in data set [14], 350 nM. Further, the “Ratio EC50” value in data set [6] was 2. Moreover, the selectivity ratio in data set [9] was 9; in [10], 9860. Besides, in data set [12], the CC50 was determined as 23400 nM. Moreover, in data set [13], the IC50 was determined as 51 nM.
Take `C=CC(=O)N1CCN(Cc2ccc(Nc3nccc(Oc4c(C)cc(/C=C/C#N)cc4C)n3)cc2)CC1`: the EC50 was 5.7 nM in data set [1] (read-out: EC50); 5.75 nM in data set [1] (read-out: pEC50 (converted)); over 5210 nM in [2]; 41 nM in [3]; 10 nM in data set [4]; over 5210 nM in data set [5] (setting [15]). For the same compound, the EC50 is 84 nM in data set [7], 34 nM in data set [8] and 870 nM in [14]. Also, the values for the selectivity ratio in data set [9] and in data set [10] were under 1 and 909, respectively. Moreover, the CC50 in data set [12] turned out to be 5210 nM. Also, the IC50 in data set [13] is 71 nM.
On to `CCS(=O)(=O)N1CCN(Cc2ccc(Nc3nccc(Oc4c(C)cc(/C=C/C#N)cc4C)n3)cc2)CC1`, for which the EC50 in data set [1] (read-out: EC50) is 5.7 nM; in [1] (read-out: pEC50 (converted)), 5.75 nM; in data set [2] it was 1280 nM; in [3] it was 17 nM; in [4] it was 4.9 nM; in data set [5] (setting [15]), 980 nM. Moreover, the EC50 in [7] stood at 46 nM; in data set [8], 15 nM; in [14], 200 nM. Moreover, the selectivity ratio in data set [9] is 5; in data set [10], 810. Also, the cytotoxic concentration (CC50) in data set [12] was found to be 4600 nM. In data set [13], the IC50 was found to be 52 nM.
